Consider one compound from patent US8815919B2, “Oxadiazole derivatives” (Merck Serono SA, priority 2009, dated 2014).

Data set [1] deals with T1, S1P1 (Homo sapiens, UniProt P21453). The data set can be described thus: 35S-GTPγS binding on membranes of CHO cells expressing S1P1. Type of data set: biochemical. The following applies: read-out: S1P1/GTPG EC50. On the procedure:
(§1) Membranes were prepared from CHO cells expressing S1P1 or S1P3 for use in ligand and […] binding studies. Cells were suspended in 50 mM TRIS, pH 7.4, 2 mM EDTA, 250 mM Sucrose (buffer A) and 1× Complete protease inhibitor cocktail (Roche), and disrupted at 4° C. by N2 decompression using a cell disruption bomb (Parr Instrument). Following centrifugation at 1000 RPM for 10 min at 4° C., the supernatant was diluted (2×) in buffer A and centrifuged again at 19000 RPM for 75 min at 4° C. The pellet was then suspended in 10 mM HEPES, pH 7.4, 1 mM EDTA, 250 mM Sucrose (Buffer B), and 1× Complete EDTA-free protease inhibitor cocktail and homogenized using a potter. Membranes were flash frozen in liquid N2 and stored at −80° C.
(§2) Membranes (1 to 10 μg protein) prepared as described above, were incubated in 96-well Scintiplates (PerkinElmer) with test compounds diluted in DMSO, in 140 μl of 20 mM HEPES, pH 7.4, 10 mM MgCl2, 2 μg/well Saponin, 0.2% fatty acid free BSA (Assay buffer), 125 mM NaCl and 1.5 μM GDP. The assay was initiated with the addition of 60 μl of 1.5 nM [35S]-GTPγS (1100 Ci/mmol; GE Healthcare) in assay buffer. After 60 min incubation at 30° C. on a shaker, plates were centrifuged for 10 min at 2000 RPM. Supernatant was discarded and membrane bound radioactivity was measured on a PerkinElmer 1450 MicroBeta counter. Triplicate samples were averaged and expressed as % response relative to S1P activation in absence of compound (n=2).
(§3) The “potency” or the “activity” of the compounds is determined by the EC50 values as evaluated in the above described 35S-GTPγS binding assay.
Target sequence in this assay (P21453 whole entry, species assumed): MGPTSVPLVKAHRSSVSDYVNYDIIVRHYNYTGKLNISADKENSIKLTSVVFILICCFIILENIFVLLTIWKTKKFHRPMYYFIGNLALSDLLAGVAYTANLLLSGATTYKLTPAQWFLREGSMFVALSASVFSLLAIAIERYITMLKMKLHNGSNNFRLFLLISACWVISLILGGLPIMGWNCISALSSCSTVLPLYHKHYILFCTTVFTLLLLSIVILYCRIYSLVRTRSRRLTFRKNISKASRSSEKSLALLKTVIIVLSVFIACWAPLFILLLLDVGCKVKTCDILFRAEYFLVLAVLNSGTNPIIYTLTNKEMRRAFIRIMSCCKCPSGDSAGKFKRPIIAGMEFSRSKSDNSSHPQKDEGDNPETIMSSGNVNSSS
(In general: GTPγS resists hydrolysis and so accumulates on activated G proteins.)

The target of data set [2] is T2, S1P3 (Homo sapiens, UniProt Q99500). Put plainly: 35S-GTPγS binding on membranes of CHO cells expressing S1P3. Format: biochemical. As to conditions: read-out: S1P3/GTPG EC50. The method, then: as §1, §2, §3
The target in data set [3] is T1, S1P1. The data set can be described thus: Receptor binding assay, [33P]sphingosine 1-phosphate competition, S1P1 membranes, WGA SPA beads. Put shortly:
(§4)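 Competition of [33P]S1P ([…]) on CHO cell membranes with WGA SPA beads in 50 mM HEPES pH 7.5, 5 mM MgCl2, 100 mM NaCl, 0.4% fatty acid-free BSA; 60 min at RT. Triplicates normalised to total binding and nonspecific binding (1000-fold excess unlabeled S1P).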
Target sequence in this assay (P21453 whole entry, species assumed): as above

Data set [4] concerns the target T2, S1P3. Put plainly: Receptor binding assay, [33P]sphingosine 1-phosphate competition, S1P3 membranes, WGA SPA beads. Put shortly:
as §4

The subject of the next data set is lymphocytes. The data set can be described thus: Model of S1P agonists-induced lymphopenia in mice. Format: in vivo. As to conditions: oral. The method, then:
(§5) Female C57BL/6 mice (Elevage Janvier) (8 week old) receive S1P agonists by oral route. Blood is sampled in heparinized (100 IU/kg, ip) mice by intracardiac or retroorbital puncture under isoflurane anesthesia 2 to 120 hrs after drug treatment. The white blood cells (lymphocytes and neutrophils) are counted using a Beckman/Coulter counter. The quality of blood sampling is assessed by counting erythocytes and platelets.

A short description of data set [5]: Pharmacokinetics in mouse (PK parameters from lymphopenia study). Format: in vivo. As to conditions: 30 mpk. On the procedure: as §5
Pharmacokinetics Data: • The pharmacoinetic properties of compound of example 20, N-(3-fluoro-5-{5-[2-(methoxymethyl)-2′-methylbiphenyl-4-yl]-1,2,4-oxadiazol-3-yl}benzyl)-N-methylglycine, hydrochloride salt, are the following: […]

Data set [6] addresses T1, S1P1. Put plainly: S1P1 internalization assay in S1P1-U2OS cells (S1P1-EGFP), cell imaging. Type of data set: cell-based. More on the design: host or cells: U2OS (human bone osteosarcoma epithelial cells), CMV promoter, geneticin selection. As to conditions: 1 hour incubation. The essentials: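 U2OS cells stably expressing human S1P1-EGFP, plated overnight in 1% FCS medium, then serum-starved 2 h in 0.1% fatty-acid-free BSA before 1 h compound exposure at 37 °C. After PFA fixation and Hoechst staining, internalization imaged as EGFP spot count per nucleus.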
Target sequence in this assay (P21453 whole entry): as the sequence (P21453 whole entry, species assumed) above

Where [7] appears, read: female, C57BL/6, plasma, po, 30 mg/kg.

Where a name gives a salt, the structure may show the parent alone. Read-outs that look alike come from different tables or passages of the source.

T2 sequence (Q99500 whole entry, species assumed): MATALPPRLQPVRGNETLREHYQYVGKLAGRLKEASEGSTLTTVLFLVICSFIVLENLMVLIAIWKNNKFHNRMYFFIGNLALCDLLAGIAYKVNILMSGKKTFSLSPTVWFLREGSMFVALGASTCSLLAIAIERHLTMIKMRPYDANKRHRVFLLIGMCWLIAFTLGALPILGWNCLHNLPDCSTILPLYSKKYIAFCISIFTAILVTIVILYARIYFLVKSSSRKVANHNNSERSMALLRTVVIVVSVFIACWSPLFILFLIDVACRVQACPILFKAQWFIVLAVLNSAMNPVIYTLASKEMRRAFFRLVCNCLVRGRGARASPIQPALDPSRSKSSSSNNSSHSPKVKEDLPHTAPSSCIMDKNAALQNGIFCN

For orientation: Ki means the dissociation constant of the complex between target and ligand, obtained from inhibition or displacement. For orientation: Cmax means the peak of the concentration-time curve. By Tmax is commonly meant the time from dosing to the highest level. In general, half-life refers to how long it takes for the measured level to halve. Turning to `COCc1cc(-c2nc(-c3cc(F)cc(CN(C)CC(=O)O)c3)no2)ccc1-c1ccccc1C` [Example 20, N-(3-fluoro-5-{5-[2-(methoxymethyl)-2′-methylbiphenyl-4-yl]-1,2,4-oxadiazol-3-yl}benzyl)-N-methylglycine, hydrochloride salt], the figures for the EC50 at S1P1 [1], at S1P3 [2] and on S1P1 [6] were 0.717 nM, 59.9 nM and 5.33 nM, respectively. For the same compound, the Ki worked out at 1.69e-10 M on S1P1 [3] (96 well-plate, read-out: S1P1 binding Ki (M) (96 well-plate)); 1.33e-09 M at S1P1 [3] (384 well-plate, read-out: S1P1 binding Ki (M) (384 well-plate)); 1.73e-08 M at S1P3 [4] (96 well-plate, read-out: S1P3 binding Ki (M) (96 well-plate)); 7.78e-08 M at S1P3 [4] (384 well-plate, read-out: S1P3 binding Ki (M) (384 well-plate)). Moreover, the “% Lymphopenia in mouse at 48 h” value in the data set on lymphocytes came to 72 ± 5%. Besides, the “Plasma AUD?” value in data set [5] is 202.751 µg·h/mL. The “Lymph node/plasma ratio: 24 h” value in data set [5] (24 h) came to 0.8. Also, the “Lymph node/plasma ratio: 48 h” value in data set [5] (48 h) was determined as 0.7. The Kp in data set [5] (female, C57BL/6, brain, oral, 30 mg/kg, ratio of AUC, read-out: Brain/Plasma-Ratio: AUCZ (h*ng/ml)) was 0.15. The Cmax in data set [5] (setting [7]) is 10300 ng/mL. Also, in data set [5] (setting [7]), the time to peak (Tmax) came to 4 h. Besides, in data set [5] (setting [7]), the half-life turned out to be 5.3 h. In data set [5] (female, C57BL/6, plasma, po, 30 mg/kg, read-out: Cl/F (L/kg/h) (Fz%)), the CL/F was found to be 0.15 L/kg/h.
